Data on four compounds can be found in ChEMBL document CHEMBL1125524, “Adenosine A1 antagonists. 2. Structure-activity relationships on diuretic activities and protective effects against acute renal failure” (J Med Chem, 1992).

Experiment [1] relates to Rattus norvegicus. As to the kind of experiment: Serum creatinine concentration measured after intraperitoneal administration of 10 mg/kg of compound to rats(vehicle 4.98+/-0.08). The format is functional.
The test system of experiment [2] is Rattus norvegicus. Description: Oral diuretic activity was measured after oral administration of 25 mg/kg to rats(control volume is 0.89+/-0.06). The format is functional, Urine.
The subject of experiment [3] is Rattus norvegicus. Description: Percent inhibition of serum creatinine by the compound given as ratio of Cr value in treated to vehicle treated ones after intraperitoneal administration of 10 mg/kg of compound to rats(vehicle 4.98+/-0.08). The note with it: ip. The format is functional.
Experiment [4] concerns Rattus norvegicus. Description: Ratio of urinary excretion value (urinary volume) in treated rats to that in control rats, at a peroral dose of 25 mg/Kg. Type of experiment: functional, Urine.
For experiment [5], the system named is Rattus norvegicus. Description: Ratio of sodium ion/potassium ion concentration in treated rats to that in control rats, at a peroral dose of 25 mg/Kg. The format is functional.
In experiment [6] the test system is Rattus norvegicus. Description: Ratio of urinary excretion value (Na+ concentration) in treated rats to that in control rats, at a peroral dose of 25 mg/Kg. The format is functional, Urine.
Experiment [7] concerns Rattus norvegicus. As to the kind of experiment: Ratio of urinary excretion value (Na+ concentration) in treated rats to that in control rats, at a peroral dose of 6.25 mg/Kg. The format is functional, Urine.
For experiment [8], the system named is Rattus norvegicus. As to the kind of experiment: Effect on urinary excretion potassium and sodium after oral administration of 25 mg/kg to rats(potassium and sodium excretion in control rat is […]+/-[…]). The format is functional, Urine.
Experiment [9] deals with Rattus norvegicus. As to the kind of experiment: Urea nitrogen concentration measured after intraperitoneal administration of 10 mg/kg of compound to rats(vehicle 150.7+/-3.4). The format is functional.
Experiment [10] concerns Rattus norvegicus. As to the kind of experiment: Percent inhibition of Urea nitrogen by the compound given as ratio of UN value in treated to vehicle treated ones after intraperitoneal administration of 10 mg/kg of compound to rats(vehicle 150.7+/-3.4). Type of experiment: functional. The note with it: ip.
Experiment [11] relates to Rattus norvegicus. As to the kind of experiment: Ratio of urinary excretion value (urinary volume) in treated rats to that in control rats, at a peroral dose of 6.25 mg/Kg. The format is functional, Urine.
The target of another experiment is Adenosine A2 receptor (Rattus norvegicus, UniProt P29276+P30543).
Experiment [12] concerns Rattus norvegicus. Description: Serum creatinine concentration measured after intraperitoneal administration of 1 mg/kg of compound to rats(vehicle 3.06+/-0.68). Type of experiment: functional.
Experiment [13] deals with Rattus norvegicus. Description: Serum creatinine concentration measured after intraperitoneal administration of 10 mg/kg of compound to rats(vehicle 2.13+/-0.27). Type of experiment: functional.
Experiment [14] deals with Rattus norvegicus. As to the kind of experiment: Effect on urinary excretion potassium and sodium after oral administration of 1.6 mg/kg to rats(potassium and sodium excretion in control rat is 0.173+/-0.016). Type of experiment: functional, Urine.
Experiment [15] relates to Rattus norvegicus. Description: Ratio of urinary excretion value (urinary volume) in treated rats to that in control rats, at a peroral dose of 1.6 mg/Kg. The format is functional, Urine.
Experiment [16] concerns Rattus norvegicus. As to the kind of experiment: Percent inhibition of serum creatinine by the compound given as ratio of Cr value in treated to vehicle treated ones after intraperitoneal administration of 1 mg/kg of compound to rats(vehicle 3.06+/-0.68). Type of experiment: functional. Conditions: ip.
The test system of experiment [17] is Rattus norvegicus. As to the kind of experiment: Ratio of sodium ion/potassium ion concentration in treated rats to that in control rats, at a peroral dose of 1.6 mg/Kg. The format is functional.
Experiment [18] has as its system Rattus norvegicus. As to the kind of experiment: Ratio of urinary excretion value (Na+ concentration) in treated rats to that in control rats, at a peroral dose of 1.6 mg/Kg. Type of experiment: functional, Urine.
Experiment [19] concerns Rattus norvegicus. As to the kind of experiment: Effect on urinary excretion potassium and sodium after oral administration of 25 mg/kg to rats(potassium and sodium excretion in control rat is 0.146+/-0.017). The format is functional, Urine.
For experiment [20], the system named is Rattus norvegicus. Description: Percent inhibition of serum creatinine by the compound given as ratio of Cr value in treated to vehicle treated ones after intraperitoneal administration of 10 mg/kg of compound to rats(vehicle 2.13+/-0.27). Type of experiment: functional. The note with it: ip.
Experiment [21] has as its system Rattus norvegicus. As to the kind of experiment: Oral diuretic activity was measured after oral administration of 25 mg/kg to rats(control volume is 0.96+/-0.20). Type of experiment: functional, Urine.
The subject of experiment [22] is Rattus norvegicus. As to the kind of experiment: Urea nitrogen concentration measured after intraperitoneal administration of 1 mg/kg of compound to rats(vehicle 120.9+/-23.3). Type of experiment: functional.
The species entered for experiment [23] is Rattus norvegicus. The format is functional, Urine. Conditions: dose 1.6 mg/kg; route oral.
For experiment [24], the system named is Rattus norvegicus. As to the kind of experiment: Percent inhibition of Urea nitrogen by the compound given as ratio of UN value in treated to vehicle treated ones after intraperitoneal administration of 1 mg/kg of compound to rats(vehicle 120.9+/-23.3). Type of experiment: functional. Conditions: ip.
Experiment [25] relates to Rattus norvegicus. Description: Serum creatinine concentration measured after intraperitoneal administration of 1 mg/kg of compound to rats(vehicle 3.62+/-0.52). Type of experiment: functional.
Experiment [26] deals with Rattus norvegicus. As to the kind of experiment: Serum creatinine concentration measured after intraperitoneal administration of 10 mg/kg of compound to rats(vehicle 3.93+/-0.45). Type of experiment: functional.
In experiment [27] the test system is Rattus norvegicus. Description: Urea nitrogen concentration measured after intraperitoneal administration of 1 mg/kg of compound to rats(vehicle 105.2+/-14.9). The format is functional.
Experiment [28] has as its system Rattus norvegicus. As to the kind of experiment: Oral diuretic activity was measured after oral administration of 1.6 mg/kg to rats(control volume is 0.96+/-0.09). Type of experiment: functional, Urine.
In experiment [29] the test system is Rattus norvegicus. As to the kind of experiment: Urea nitrogen concentration measured after intraperitoneal administration of 10 mg/kg of compound to rats(vehicle 129.1+/-14.5). The format is functional.
Experiment [30] deals with Rattus norvegicus. Description: Effect on urinary excretion potassium and sodium after oral administration of 1.6 mg/kg to rats(potassium and sodium excretion in control rat is 0.147+/-0.015). Type of experiment: functional, Urine.
The target in another experiment is T1, Adenosine receptor A1 (Cavia porcellus, UniProt P47745).
T1 sequence (P47745 whole entry): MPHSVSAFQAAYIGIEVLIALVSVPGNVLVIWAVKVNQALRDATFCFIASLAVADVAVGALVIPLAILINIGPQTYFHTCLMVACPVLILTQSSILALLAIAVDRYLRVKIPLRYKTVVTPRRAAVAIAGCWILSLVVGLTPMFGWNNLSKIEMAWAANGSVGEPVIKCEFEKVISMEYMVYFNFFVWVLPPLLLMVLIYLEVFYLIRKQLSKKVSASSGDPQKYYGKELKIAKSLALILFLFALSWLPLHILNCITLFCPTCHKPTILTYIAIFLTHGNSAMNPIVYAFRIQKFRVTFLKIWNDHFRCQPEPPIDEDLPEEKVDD

SMILES strings stand for the structures.

Description for Adenosine receptor A1: Binding affinity against adenosine A1 receptor in guinea pig forebrain membranes using N6-[3H]cyclohexyladenosine as radioligand

The inhibition in vivo is how much of the control response was suppressed. One may read the Ki as a dissociation constant, usually derived from enzyme kinetics or from competition with a known ligand. In the case of `CCCn1c(=O)c2c(nc(C(C3CC3)C3CC3)n2CC)n(CCC)c1=O`, in the experiment with Rattus norvegicus [1], the Cr worked out at 4.5 mg/dL. This compound also gave a Urine volume in the experiment with Rattus norvegicus [2] of 2.15 ml 6hr-1 100g-1. Further, the inhibition in vivo at 10 mg/kg is 10% with Rattus norvegicus [3] and 5% in the experiment on Rattus norvegicus [10]. In addition, the T/C was determined as 2.42 in the experiment on Rattus norvegicus [4], 2.14 in the experiment on Rattus norvegicus [6], 1.24 with Rattus norvegicus [7] and 1.19 in the experiment with Rattus norvegicus [11]. The “Na+/K+” value in the experiment with Rattus norvegicus [5] came to 1.51. In addition, the Na in the experiment on Rattus norvegicus [8] was determined as 0.348 m equiv 6hr-1 100g-1. The compound also yielded a UN in the experiment with Rattus norvegicus [9] of 142.7 mg/dL. The compound also returned a Ki on Adenosine A2 receptor of 14 µM.

`CCCn1c(=O)c2nc(C3C(C)(C)CCC3(C)C)[nH]c2n(CCC)c1=O`: the Cr in the experiment on Rattus norvegicus [12] was 3.03 mg/dL; in the experiment on Rattus norvegicus [13] it was 1.43 mg/dL. The values for the Na in the experiment on Rattus norvegicus [14] and in the experiment with Rattus norvegicus [19] were 0.213 m equiv 6hr-1 100g-1 and 0.172 m equiv 6hr-1 100g-1, respectively. Further, the T/C is 1.42 with Rattus norvegicus [15], 1.4 with Rattus norvegicus [4], 1.23 with Rattus norvegicus [18] and 1.18 in the experiment with Rattus norvegicus [6]. In addition, the inhibition in vivo at 1 mg/kg with Rattus norvegicus [16] is 1%; in the experiment on Rattus norvegicus [24] it was 6%. Moreover, the “Na+/K+” value in the experiment with Rattus norvegicus [17] is 1.12; with Rattus norvegicus [5], 1.21. For the same compound, the inhibition in vivo at 10 mg/kg in the experiment with Rattus norvegicus [20] was determined as 33%. The results for the Urine volume in the experiment on Rattus norvegicus [21] and in the experiment filed under Rattus norvegicus [23] were 1.34 ml 6hr-1 100g-1 and 1.5 ml 6hr-1 100g-1, respectively. The UN with Rattus norvegicus [22] is 113.4 mg/dL. The same compound registered a Ki at Adenosine A2 receptor of more than 100 µM.

In the case of `Cn1c(=O)c2nc(C(C3CC3)C3CC3)[nH]c2n(C)c1=O`, the Cr with Rattus norvegicus [25] came out at 4.1 mg/dL; in the experiment with Rattus norvegicus [26], 1.78 mg/dL. The figures for the T/C in the experiment on Rattus norvegicus [15] and in the experiment on Rattus norvegicus [18] were 0.91 and 1.24, respectively. Moreover, in the experiment on Rattus norvegicus [17], the “Na+/K+” value came out at 1.18. For the same compound, the values for the UN in the experiment on Rattus norvegicus [27] and with Rattus norvegicus [29] were 121.4 mg/dL and 57.2 mg/dL, respectively. This compound showed a Urine volume in the experiment on Rattus norvegicus [28] of 0.87 ml 6hr-1 100g-1. The compound also returned a Na in the experiment on Rattus norvegicus [30] of 0.183 m equiv 6hr-1 100g-1. The inhibition constant (Ki) on Adenosine A2 receptor was 2.7 µM.

The compound `CCCn1c(=O)c2[nH]c(CC3CCCCC3)nc2n(CCC)c1=O` came in with a Ki at Adenosine receptor A1 of 0.011 µM.
